Measured values reported in PubChem BioAssay AID256 (DTP/NCI, 2004).
“And” between values parts separate entries of the source, which are not always exact repeats. Equal entries are not always repeated. Inconclusive results and toxic doses are left out. Rule for the calls: active = survival T/C of 150% or more; inactive = T/C below 125% in these data.

Tested on: CD2F1 mice, L1210 leukemia ip, survival T/C
Assay: NCI In Vivo Anticancer Drug Screen. Data for tumor model L1210 Leukemia (intraperitoneal) in CD2F1 (CDF1) mice
Settings: endpoint: mean survival time, higher = longer survival
In short: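 Read-out first: treated-group measurement over vehicle-control measurement, expressed as a ratio. Animals bore a transplanted tumor line and were dosed with compound or vehicle.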

[1] = dose: 25.0 mg/kg/injection, schedule: Q04DX002 (ip), vehicle: saline with Tween-80
[2] = dose: 50.0 mg/kg/injection, schedule: Q04DX002 (ip), vehicle: saline with Tween-80
[3] = dose: 100.0 mg/kg/injection, schedule: Q04DX002 (ip), vehicle: saline with Tween-80
[4] = dose: 75.0 mg/kg/injection, schedule: Q01DX001 (ip), vehicle: saline
[5] = dose: 150.0 mg/kg/injection, schedule: Q01DX001 (ip), vehicle: saline

Measured: T/C

COc1cc(C(=O)c2c(OC)cccc2C(=O)O)c(OC)cc1C
inactive: dose: 12.5 mg/kg/injection, schedule: Q01DX009 (ip), vehicle: water 100 % of control | dose: 25.0 mg/kg/injection, schedule: Q01DX009 (ip), vehicle: water 100 % of control | dose: 50.0 mg/kg/injection, schedule: Q01DX009 (ip), vehicle: water 95 % of control | dose: 100.0 mg/kg/injection, schedule: Q01DX009 (ip), vehicle: water 95 % of control | dose: 200.0 mg/kg/injection, schedule: Q01DX009 (ip), vehicle: water 97 % of control

CC(=O)N1c2ccc(Br)cc2C(=O)C1C (stereo not given)
inactive: dose: 100.0 mg/kg/injection, schedule: Q01DX001 (ip), vehicle: other 98 % of control | dose: 200.0 mg/kg/injection, schedule: Q01DX001 (ip), vehicle: other 104 % of control | dose: 400.0 mg/kg/injection, schedule: Q01DX001 (ip), vehicle: other 95 % of control

CCN(CC)Cc1cc(Nc2cc(C)nc(/N=C(\N)Nc3cc(Cl)cc(Cl)c3)n2)ccc1O
inactive: dose: 12.5 mg/kg/injection, schedule: Q01DX009 (ip), vehicle: Klucel (hydroxypropylcellulose) (HPC) 93 % of control | dose: 25.0 mg/kg/injection, schedule: Q01DX009 (ip), vehicle: Klucel (hydroxypropylcellulose) (HPC) 102 % of control | [1] 97 % of control | dose: 50.0 mg/kg/injection, schedule: Q01DX009 (ip), vehicle: Klucel (hydroxypropylcellulose) (HPC) 105 % of control | [2] 94 % of control | dose: 100.0 mg/kg/injection, schedule: Q01DX001 (ip), vehicle: Klucel (hydroxypropylcellulose) (HPC) 95 % of control | [3] 94 % of control | dose: 200.0 mg/kg/injection, schedule: Q01DX001 (ip), vehicle: Klucel (hydroxypropylcellulose) (HPC) 115 % of control

O=C(COc1ccccc1-c1ccccc1)Nc1ccccc1-c1ccccc1
inactive: [1] 98 % of control | [2] 98 % of control | [3] 94 % of control

CC1=C(O)C(=O)[C@@H]2O[C@@H]2C1=O
inactive: dose: 0.78 mg/kg/injection, schedule: Q01DX009 (ip), vehicle: saline 98 % of control and 102 % of control | dose: 1.56 mg/kg/injection, schedule: Q01DX009 (ip), vehicle: saline 101 % of control and 102 % of control | dose: 3.12 mg/kg/injection, schedule: Q01DX009 (ip), vehicle: saline 96 % of control and 107 % of control | dose: 6.25 mg/kg/injection, schedule: Q01DX009 (ip), vehicle: saline 98 % of control and 108 % of control | dose: 12.5 mg/kg/injection, schedule: Q01DX009 (ip), vehicle: saline 108 % of control | dose: 25.0 mg/kg/injection, schedule: Q01DX009 (ip), vehicle: saline 87 % of control

O=[N+]([O-])c1cc(-c2nnc(-c3ccc(Cl)c([N+](=O)[O-])c3)o2)ccc1Cl
inactive: [2] 100 % of control | [3] 100 % of control | dose: 200.0 mg/kg/injection, schedule: Q04DX002 (ip), vehicle: saline with Tween-80 96 % of control | dose: 400.0 mg/kg/injection, schedule: Q04DX002 (ip), vehicle: saline with Tween-80 100 % of control

Cc1cccc(C)c1NC1=CC(=O)C(=O)c2ccccc21
inactive: [4] 95 % of control | [5] 89 % of control | dose: 300.0 mg/kg/injection, schedule: Q01DX001 (ip), vehicle: saline 97 % of control

N#CCCNCCNCCC#N
inactive: dose: 50.0 mg/kg/injection, schedule: Q01DX009 (ip), vehicle: saline with Tween-80 96 % of control | dose: 100.0 mg/kg/injection, schedule: Q01DX009 (ip), vehicle: saline with Tween-80 104 % of control | dose: 200.0 mg/kg/injection, schedule: Q01DX009 (ip), vehicle: saline with Tween-80 104 % of control

Nc1nc(N)c2c(=O)c(CSc3ccc(C(=O)NC(CCC(=O)O)C(=O)O)cc3)c[nH]c2n1 (stereo not given)
inactive: dose: 0.5 mg/kg/injection, schedule: Q01DX005 (ip), vehicle: sodium bicarbonate 92 % of control and 104 % of control | dose: 1.0 mg/kg/injection, schedule: Q01DX005 (ip), vehicle: sodium bicarbonate 92 % of control and 106 % of control | dose: 2.0 mg/kg/injection, schedule: Q01DX005 (ip), vehicle: sodium bicarbonate 89 % of control and 108 % of control | dose: 4.0 mg/kg/injection, schedule: Q01DX005 (ip), vehicle: sodium bicarbonate 95 % of control and 104 % of control | dose: 8.0 mg/kg/injection, schedule: Q01DX005 (ip), vehicle: sodium bicarbonate 95 % of control and 108 % of control | dose: 16.0 mg/kg/injection, schedule: Q01DX005 (ip), vehicle: sodium bicarbonate 95 % of control and 106 % of control

CN1CCC(CNC(=O)CCCCCCCCC(=O)NCC2(c3ccccc3)CCN(C)CC2)(c2ccccc2)CC1
inactive: dose: 1.25 mg/kg/injection, schedule: Q04DX003 (ip), vehicle: saline with Tween-80 95 % of control | dose: 2.5 mg/kg/injection, schedule: Q04DX003 (ip), vehicle: saline with Tween-80 94 % of control

CN1C2Cc3cc4c(cc3C1Cc1cc3c(cc12)OCO3)OCO4
inactive: [4] 100 % of control | [5] 94 % of control
